# Assay results published in the supplement of paper PMC10307832.
# Compound: CC(C)=CC[C@@H](O)C1=CC(=O)c2c(O)ccc(O)c2C1=O [Shikonin] + C[C@@H](Oc1cc(-c2cnn(C3CCNCC3)c2)cnc1N)c1c(Cl)ccc(F)c1Cl [Crizotinib] (partner 1 µM)
# Assay: relative viability (nuclei count vs DMSO), 5 days (fraction); higher = more cells survive
# Conditions: first compound 0.01 µM
# Method in brief: (§1)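 A single step with final 0.05% Triton X-100, 1% formaldehyde and 1 ug/ml Hoechst fixed the cells and stained nuclei 5 days after treatment. Lung cancer cell lines in 1536-well plates had been treated by pin tool the day after seeding with one drug alone or a fixed anchor-drug dose plus five library-drug doses (not always all listed) in √10 steps, and nuclei were counted on 4× images. Relative viability is the ratio of nuclei in treated wells to nuclei in vehicle wells, taken as the median of duplicate plates.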
row,Cell Line,relative viability
1,NCI-H2023,0.767
2,A-427,0.978
3,NCI-H460,1.37
4,NCI-H838,0.898
5,NCI-H1734,0.665
6,NCI-H596,1.1
7,NCI-H2405,0.854
8,201T,1.01
9,NCI-H1915,0.904
10,HCC-827,0.939
11,LXF-289,0.856
12,NCI-H2347,0.69
13,NCI-H661,1.24
14,CAL-12T,0.941
15,NCI-H1651,0.857
16,EPLC-272H,1.03
17,NCI-H23,0.576
18,NCI-H1792,1.1

row,Cell Line,relative viability
1,NCI-H1355,1.16
2,NCI-H322M,0.866
3,NCI-H1437,1.02
4,NCI-H1755,0.972
5,NCI-H2085,0.874
6,HCC-15,0.89
7,RERF-LC-KJ,0.945
8,EKVX,1.05
9,LC-2-ad,0.404
10,NCI-H1563,0.891
11,NCI-H1944,1.12
12,NCI-H1975,1.07
13,SW 1573,0.906
14,ABC-1,1.72
15,NCI-H358,0.699
16,NCI-H727,1.02
17,SK-LU-1,1.11

# Same assay, conditions: first compound 0.1 µM
row,Cell Line,relative viability
1,NCI-H2023,0.583
2,A-427,1.12
3,NCI-H460,1.38
4,NCI-H838,0.967
5,NCI-H1734,0.769
6,NCI-H596,0.884
7,NCI-H2405,0.819
8,201T,1.08
9,NCI-H1915,1.1
10,HCC-827,0.974
11,LXF-289,0.825
12,NCI-H2347,0.0168
13,NCI-H661,1.11
14,CAL-12T,0.659
15,NCI-H1651,0.831
16,EPLC-272H,0.901
17,NCI-H23,0.489
18,NCI-H1792,0.796

row,Cell Line,relative viability
1,NCI-H1355,1.31
2,NCI-H322M,0.997
3,NCI-H1437,1.17
4,NCI-H1755,1.09
5,NCI-H2085,0.857
6,HCC-15,0.916
7,RERF-LC-KJ,0.91
8,EKVX,1.2
9,LC-2-ad,0.45
10,NCI-H1563,0.845
11,NCI-H1944,1.18
12,NCI-H1975,1.18
13,SW 1573,0.867
14,ABC-1,1.15
15,NCI-H358,0.484
16,NCI-H727,0.991
17,SK-LU-1,0.937

# Same assay, conditions: first compound 0.3162 µM
row,Cell Line,relative viability
1,NCI-H2023,0.667
2,A-427,1.03
3,NCI-H460,1.26
4,NCI-H838,0.898
5,NCI-H1734,0.717
6,NCI-H596,0.96
7,NCI-H2405,0.935
8,201T,1.04
9,NCI-H1915,0.915
10,HCC-827,0.933
11,LXF-289,0.773
12,NCI-H2347,0.795
13,NCI-H661,0.967
14,CAL-12T,0.627
15,NCI-H1651,0.883
16,EPLC-272H,0.953
17,NCI-H23,0.515
18,NCI-H1792,1.03

row,Cell Line,relative viability
1,NCI-H1355,1.19
2,NCI-H322M,0.855
3,NCI-H1437,0.883
4,NCI-H1755,0.88
5,NCI-H2085,0.881
6,HCC-15,0.913
7,RERF-LC-KJ,0.829
8,EKVX,0.996
9,LC-2-ad,0.423
10,NCI-H1563,0.751
11,NCI-H1944,1.24
12,NCI-H1975,1.09
13,SW 1573,0.889
14,ABC-1,1.13
15,NCI-H358,0.619
16,NCI-H727,0.727
17,SK-LU-1,0.928

# Same assay, conditions: first compound 1 µM
row,Cell Line,relative viability
1,NCI-H2023,0.604
2,A-427,0.847
3,NCI-H460,0.884
4,NCI-H838,0.99
5,NCI-H1734,0.632
6,NCI-H596,0.985
7,NCI-H2405,0.852
8,201T,1.08
9,NCI-H1915,1.07
10,HCC-827,0.935
11,LXF-289,0.844
12,NCI-H2347,0.715
13,NCI-H661,0.957
14,CAL-12T,0.589
15,NCI-H1651,0.876
16,EPLC-272H,0.865
17,NCI-H23,0.502
18,NCI-H1792,1.14

row,Cell Line,relative viability
1,NCI-H1355,1.12
2,NCI-H322M,0.882
3,NCI-H1437,0.993
4,NCI-H1755,0.887
5,NCI-H2085,0.585
6,HCC-15,0.928
7,RERF-LC-KJ,0.899
8,EKVX,1.07
9,LC-2-ad,0.364
10,NCI-H1563,0.622
11,NCI-H1944,1.22
12,NCI-H1975,0.959
13,SW 1573,0.741
14,ABC-1,0.531
15,NCI-H358,0.63
16,NCI-H727,0.589
17,SK-LU-1,0.877

# Compound: CC(C)N(CCCNC(=O)Nc1ccc(C(C)(C)C)cc1)C[C@H]1O[C@@H](n2ccc3c(N)ncnc32)[C@H](O)[C@@H]1O + COc1cccc2cc(-c3nc([C@H]4CC[C@H](C(=O)O)CC4)n4ncnc(N)c34)[nH]c12 [OSI-027] (partner 0.5 µM)
# Assay: as above
# Conditions: first compound 0.08 µM
# Method in brief: as §1
row,Cell Line,relative viability
1,NCI-H2023,0.375
2,A-427,0.439
3,NCI-H460,0.62
4,NCI-H838,0.359
5,NCI-H1734,0.563
6,NCI-H596,0.672
7,NCI-H2405,0.626
8,201T,0.417
